According to article PMC6743422, “Preclinical disposition of MGS0274 besylate, a prodrug of a potent group II metabotropic glutamate receptor agonist MGS0008 for the treatment of schizophrenia” (Pharmacology Research & Perspectives, 2019):
Where “and” joins values, the source holds several entries; their conditions need not be identical. Identical values can stand only once. Like-named read-outs stand apart in the source and are kept apart here.

Experiments:
[1] = Plasma and CSF distribution of MGS0008 in rats; format: in vivo; details: Wistar, rat, fasted male rats, MGS0008 oral 3 mg/kg
Procedure: (§1) The pharmacokinetic profiles of MGS0008 and MGS0274 were investigated in fasted male Wistar rats (n = 3) and fed male cynomolgus monkeys (n = 4). Monkeys had been given 60 g of a primate diet (PS‐A; Oriental Yeast, Tokyo, Japan) one hour before administration. For intravenous administration, MGS0008 was dissolved in saline (pH7.4) and administered to rats (3 mg/kg) and monkeys (1 mg/kg). Blood samples were collected from the tail vein (rats) or the forelimb cephalic vein (monkeys) into tubes containing EDTA‐2K at 5, 15, and 30 minutes and at 1, 2, 4, 8, and 24 hours postdose for both species, and an additional sample was collected at 12 hours postdose for monkeys. Urine samples were collected until 48 hours at 24‐hour intervals (rats) or at 0‐ to 8‐hour, 8‐ to 24‐hour, and 24‐ to 48‐hour intervals (monkeys). The plasma or urine samples was mixed with acetonitrile/methanol (9:1, v/v) containing [^13C2 ^15N]MGS0008 and centrifuged. Aliquots of the supernatant were subjected to bioanalysis using LC‐MS/MS (see Table S1‐E). For oral administration, MGS0008 was dissolved in distilled water (rats) or 0.5% w/v methylcellulose 400 (monkeys) and administered to rats (3 mg/kg) and monkeys (1 mg/kg). MGS0274 besylate was suspended in 0.5% w/v methylcellulose 400 containing 0.1% v/v Tween 80 and administered to monkeys at a dose of 2.89 mg/kg (1‐mg equivalent of MGS0008/kg). Blood samples were collected from the tail vein (rats) or the forelimb cephalic vein (monkeys) into tubes containing EDTA‐2K at 30 minutes, 1, 1.5, 2, 4, 6, 8, and 24 hours postdose for rats, and 30 minutes, 1, 2, 4, 8, 12, and 24 hours postdose for monkeys. The plasma samples were mixed with acetonitrile/methanol (9:1, v/v) containing internal standards ([^13C2 ^15N]MGS0008 and MGS0039) and centrifuged. Aliquots of the supernatant were subjected to bioanalysis using LC‐MS/MS (see Tables S1‐E and F). In the study examining the tissue distribution of MGS0008 in rats (3 mg/kg), blood samples were collected from the posterior vena cava into tubes containing EDTA‐2K under isoflurane anesthesia at 1.5, 4, 6, or 24 hours postdose. Then, the animals were euthanized by exsanguination from the abdominal aorta; cerebrospinal fluid (CSF) samples were drawn from the spinal cord space in each animal. The plasma or CSF was mixed with acetonitrile/methanol (9:1, v/v) containing [^13C2 ^15N]MGS0008 and centrifuged. Aliquots of the supernatant were subjected to bioanalysis using LC‐MS/MS (see Table S1‐E).
(§2) The plasma concentration‐time profiles of MGS0008 and MGS0274 were analyzed using a non‐compartmental analysis method with pharmacokinetic analysis software Phoenix® WinNonlin® 6.2 or later (Certara, Princeton, NJ).

[2] = Pharmacokinetics of MGS0008 in monkeys (intravenous or oral); format: in vivo, cynomolgus monkey; details: fed male monkeys; for AUC(0-t): read-out: AUC0–24h
Procedure: as §1, §2

[3] = Prediction of human pharmacokinetic parameters by single-species allometric scaling
Procedure: The prediction of CLtotal, Vdss, and t1/2 in humans was performed using single‐species allometric scaling methods 14 with the pharmacokinetic parameters obtained from the intravenous administration of MGS0008 to rats and monkeys, unbound fraction of MGS0008 in rat, monkey, and human plasma (1.0), and body weight of rats (0.3 kg), monkeys (5 kg), and humans (60 kg).

[4] = tested on: conditioned avoidance responses; details: rat; cited from earlier work
mGlu2/3 receptors = details: cited from earlier work
[5] = CSF, read-out: CSF concentration
[6] = plasma, read-out: Plasma concentration
[7] = cynomolgus monkey, MGS0008 intravenous 1 mg/kg, plasma
[8] = cynomolgus monkey, MGS0008 oral 1 mg/kg, plasma
[9] = single-species allometric scaling from the monkey data
[10] = single-species allometric scaling from the rat data

N[C@]1(C(=O)O)[C@H]2[C@@H](C[C@@H]1F)[C@@H]2C(=O)O [MGS0008, (1S,2S,3S,5R,6S)‐2‐amino‐3‐fluorobicyclo[3.1.0]hexane‐2,6‐dicarboxylic acid]
Kp ([1]; CSF/plasma, read-out: CSF/plasma AUC ratio): 0.028 | concentration at 1.5 h [1, 5]: 19.1 ± 5.08 ng/mL | concentration at 4 h [1, 5]: 7.88 ± 1.04 ng/mL | concentration at 6 h [1, 5]: 4.84 ± 0.384 ng/mL | concentration at 24 h [1, 5]: 2.04 ± 0.0265 ng/mL | AUC(0-t) ([1]; CSF, read-out: AUC0–24h in CSF): 123 ± 7.37 ng·h/mL | concentration at 1.5 h [1, 6]: 1980 ± 431 ng/mL | concentration at 4 h [1, 6]: 138 ± 64.2 ng/mL | concentration at 6 h [1, 6]: 6.23 ± 1.83 ng/mL | concentration at 24 h ([1]; plasma, below lower limit of quantification, read-out: Plasma concentration): < 3 ng/mL | AUC(0-t) ([1]; plasma, read-out: AUC0–24h in plasma): 4330 ± 719 ng·h/mL | concentration at 24 h ([2]; cynomolgus monkey, plasma, MGS0008 intravenous 1 mg/kg, below lower limit of quantification): < 3 ng/mL | clearance ([2]; cynomolgus monkey, plasma, MGS0008 intravenous 1 mg/kg, mean ± SD (n = 4), read-out: CLtotal (converted)): 2.15 mL/min/kg | Vd ([2]; cynomolgus monkey, plasma, MGS0008 intravenous 1 mg/kg, mean ± SD (n = 4), read-out: Vdss): 0.181 ± 0.0214 L/kg | bioavailability ([2]; cynomolgus monkey, plasma, MGS0008 oral 1 mg/kg, AUC0-24h oral / AUC0-24h intravenous × 100): 3.8 ± 2.8% | CL renal ([2]; cynomolgus monkey, urine and plasma, MGS0008 intravenous 1 mg/kg): 2.07 mL/min/kg | half-life [2, 7]: 1.48 ± 0.0435 h | AUC(0-t) [2, 7]: 7830 ± 776 ng·h/mL | Cmax [2, 8]: 20.5 ± 11.5 ng/mL | Tmax [2, 8]: 9 ± 10 h | AUC(0-t) [2, 8]: 281 ± 177 ng·h/mL | vomiting ([2]; MGS0008 intravenous 1 mg/kg): three of the four monkeys experienced transient vomiting | Urinary excretion (unchanged form) ([2]; MGS0008 intravenous 1 mg/kg, within 48 hours, % of administered dose, 1 mg/kg): 96.4% and 96.4 ± 7.51% | predicted CLtotal in humans [3, 9]: 1.16 mL/min/kg | predicted Vdss in humans [3, 9]: 0.181 L/kg | predicted t1/2 in humans [3, 9]: 1.8 h | predicted CLtotal in humans [3, 10]: 2.43 mL/min/kg | predicted Vdss in humans [3, 10]: 0.545 L/kg | predicted t1/2 in humans [3, 10]: 2.6 h | conditioned avoidance responses [4]: reduced | agonist activity for mGlu2/3 receptors (mGlu2/3 receptors): potent agonist activity
